Test in all cases: Herbicidal activity test against upland field weeds (foliar treatment test)
What all share (assay type): in vivo

For one assay, the system named is quack grass. Also noted: key to Foliar treatment herbicidal activity, quack grass: 0 (no control); 100 (complete control). As to conditions: 50 g ai/ha, scale 0-100. Here is the method:
(§1) Experimental Example 1: Herbicidal Activity Test Against Upland Field Weeds (Foliar Treatment Test) Foliar treatment was performed as follows: After filling a square plastic pot having a surface area of 350 cm^2 with horticultural soil, seeds (10˜15 grains) or rootstocks (2 pieces) of 5 kinds of grassy weeds of sorghum, barnyard grass, quack grass, crabgrass, fall panicum, and 5 kinds of broadleaf weeds of black nightshade, indian jointvetch, velvetleaf, cocklebur, bindweed, which had been stored in a low temperature (6° C.), were sown. After growing for a certain period in greenhouse conditions (average temperature 30±5° C., light/dark=14/10 hours), test compound solutions were made by diluting with a preparation solution (including 50% acetone, 0.1% Tween-20) so that the final treatment amount of the test compounds was 50 or 75 g a.i./ha. The prepared test compound solution was used for treating foliage by hand-spraying 14 mL per pot in a fume hood. After the treatment, it was managed under the same greenhouse conditions as above, and after 14 days (after 21 days if necessary), the external symptoms and efficacy were investigated according to the scale of 0 (no control) to 100 (complete control). The results of Table 7 were obtained by evaluating weed control value to the untreated control by conducting visual assessment.

The next assay deals with fall panicum. Further details: key to Foliar treatment herbicidal activity, Fall panicum: 0 (no control); 100 (complete control). The settings on record: 50 g ai/ha, scale 0-100; for pest or weed control at 50 g/ha: Panicum dichotomiflorum. Here is the method:
as §1

The next assay concerns sorghum. Also noted: key to Foliar treatment herbicidal activity, Sorghum: 0 (no control); 100 (complete control). The settings on record: 50 g ai/ha, scale 0-100; for plant injury at 50 g/ha: Sorghum. The method, then:
as §1

For a further assay, the system named is bindweed. Also noted: key to Foliar treatment herbicidal activity, Bindweed: 0 (no control); 100 (complete control). The settings on record: 50 g ai/ha, scale 0-100. Here is the method: as §1
The next assay relates to indian jointvetch. Also noted: key to Foliar treatment herbicidal activity, Indian jointvetch: 0 (no control); 100 (complete control). The settings on record: 50 g ai/ha, scale 0-100. The method, then:
as §1

The next assay relates to cocklebur. Further details: key to Foliar treatment herbicidal activity, Cocklebur: 0 (no control); 100 (complete control). As to conditions: 50 g ai/ha, scale 0-100; for pest or weed control at 50 g/ha: Xanthium strumarium. Here is the method: as §1
A further assay concerns crabgrass. Further details: key to Foliar treatment herbicidal activity, Crabgrass: 0 (no control); 100 (complete control). As to conditions: 50 g ai/ha, scale 0-100; for pest or weed control at 50 g/ha: Digitaria sanguinalis. The method, then: as §1
In the next assay the test system is black nightshade. Further details: key to Foliar treatment herbicidal activity, black nightshade: 0 (no control); 100 (complete control). As to conditions: 50 g ai/ha, scale 0-100; for pest or weed control at 50 g/ha: Solanum nigrum. The method, then: as §1
A further assay relates to barnyard grass. Also noted: key to Foliar treatment herbicidal activity, barnyard grass: 0 (no control); 100 (complete control). As to conditions: 50 g ai/ha, scale 0-100; for pest or weed control at 50 g/ha: Echinochloa crus-galli. The method, then: as §1
The subject of a further assay is velvetleaf. Also noted: key to Foliar treatment herbicidal activity, velvet leaf: 0 (no control); 100 (complete control). The settings on record: 50 g ai/ha; for pest or weed control at 50 g/ha: Abutilon theophrasti, scale 0-100, read-out: Foliar treatment herbicidal activity, velvet leaf. The method, then: as §1

`CN(C)c1nc(COCc2nc(C(F)(F)F)ccc2C(=O)Nc2nnnn2C)nn1C` [Compound No. 2-133, 2-(((5-(dimethylamino)-1-methyl-1H-1,2,4-triazol-3-yl)methoxy)methyl)-N-(1-methyl-1H-tetrazol-5-yl)-6-(trifluoromethyl)nicotinamide]: the “Foliar treatment herbicidal activity, quack grass” value with quack grass stood at 0. In addition, the pest or weed control at 50 g/ha in the assay on fall panicum was 80%; in the assay on bindweed it was 90%; in the assay with indian jointvetch it was 95%; in the assay on cocklebur, 95%; in the assay with crabgrass, 98%; with barnyard grass, 90%. Also, in the assay on velvetleaf, the pest or weed control at 50 g/ha is 80%. The molecule also had a plant injury at 50 g/ha with sorghum of 20%. Further, in the assay on black nightshade, the “Foliar treatment herbicidal activity, black nightshade” value was found to be 100.
For the molecule `CN(Cc1nnn(C)n1)Cc1nc(C(F)(F)F)ccc1C(=O)Nc1nnnn1C` [Compound No. 2-93, 2-((methyl((2-methyl-2H-tetrazol-5-yl)methyl)amino)methyl)-N-(1-methyl-1H-tetrazol-5-yl)-6-(trifluoromethyl)nicotinamide], the “Foliar treatment herbicidal activity, quack grass” value with quack grass is listed as 0. The pest or weed control at 50 g/ha with fall panicum was determined as 30%; in the assay with bindweed it was 50%; with indian jointvetch, 70%; in the assay on cocklebur it was 95%; in the assay on crabgrass it was 40%; with barnyard grass, 20%. The pest or weed control at 50 g/ha in the assay on velvetleaf was 80%. In addition, the plant injury at 50 g/ha in the assay with sorghum was 20%. The “Foliar treatment herbicidal activity, black nightshade” value in the assay on black nightshade is 100.
`CCN(Cc1nnn(C)n1)Cc1nc(C(F)(F)F)ccc1C(=O)Nc1nnnn1C` [Compound No. 2-94, 2-((ethyl((2-methyl-2H-tetrazol-5-yl)methyl)amino)methyl)-N-(1-methyl-1H-tetrazol-5-yl)-6-(trifluoromethyl)nicotinamide]: in the assay on quack grass, the “Foliar treatment herbicidal activity, quack grass” value turned out to be 0. In the assay on fall panicum, the “Foliar treatment herbicidal activity, Fall panicum” value was found to be 0. Besides, the “Foliar treatment herbicidal activity, Sorghum” value in the assay on sorghum came out at 0. The pest or weed control at 50 g/ha in the assay with bindweed worked out at 30%; in the assay on indian jointvetch it was 60%; with cocklebur, 60%; in the assay on velvetleaf it was 60%. The “Foliar treatment herbicidal activity, Crabgrass” value in the assay with crabgrass is on record as 0. In addition, the “Foliar treatment herbicidal activity, black nightshade” value in the assay with black nightshade came to 100. Further, in the assay on barnyard grass, the “Foliar treatment herbicidal activity, barnyard grass” value worked out at 0.
With `Cn1nnnc1NC(=O)c1ccc(C(F)(F)F)nc1COc1nnnn1C` [Compound No. 1-115, N-(1-methyl-1H-tetrazol-5-yl)-2-(((1-methyl-1H-tetrazol-5-yl)oxy)methyl)-6-(trifluoromethyl)nicotinamide], the “Foliar treatment herbicidal activity, quack grass” value in the assay with quack grass is on record as 0. Moreover, in the assay on fall panicum, the “Foliar treatment herbicidal activity, Fall panicum” value was 0. The “Foliar treatment herbicidal activity, Sorghum” value in the assay on sorghum is 0. In addition, the pest or weed control at 50 g/ha is 80% with bindweed; 40% with indian jointvetch; 80% with cocklebur; 95% with black nightshade; 30% in the assay on barnyard grass; 40% with velvetleaf. Besides, the “Foliar treatment herbicidal activity, Crabgrass” value in the assay on crabgrass is 0.
With `Cn1nnc(CNc2nc(C(F)(F)F)ccc2C(=O)Nc2nnnn2C)n1` [Compound No. 2-32, N-(1-methyl-1H-tetrazol-5-yl)-2-(((2-methyl-2H-tetrazol-5-yl)methyl)amino)-6-(trifluoromethyl)nicotinamide], the “Foliar treatment herbicidal activity, quack grass” value with quack grass is given as 0. Also, the “Foliar treatment herbicidal activity, Fall panicum” value with fall panicum is given as 0. Also, the “Foliar treatment herbicidal activity, Sorghum” value in the assay on sorghum came to 0. Moreover, in the assay with bindweed, the “Foliar treatment herbicidal activity, Bindweed” value was 0. Moreover, the “Foliar treatment herbicidal activity, Indian jointvetch” value in the assay with indian jointvetch turned out to be 0. Further, in the assay with cocklebur, the “Foliar treatment herbicidal activity, Cocklebur” value is 0. For the same molecule, the “Foliar treatment herbicidal activity, Crabgrass” value in the assay on crabgrass was 0. This molecule returned a pest or weed control at 50 g/ha in the assay with black nightshade of 40%. Also, in the assay on barnyard grass, the “Foliar treatment herbicidal activity, barnyard grass” value stood at 0. Moreover, the “Foliar treatment herbicidal activity, velvet leaf” value in the assay on velvetleaf (scale 0-100) was found to be 0.
`Cn1nnnc1NC(=O)c1ccc(C(F)(F)F)nc1COCc1nnn(C(F)F)n1` [Compound No. 2-92, 2-(((2-(difluoromethyl)-2H-tetrazol-5-yl)methoxy)methyl)-N-(1-methyl-1H-tetrazol-5-yl)-6-(trifluoromethyl)nicotinamide]: the “Foliar treatment herbicidal activity, quack grass” value in the assay with quack grass is given as 0. Also, the pest or weed control at 50 g/ha with fall panicum is 40%; in the assay with bindweed, 70%; in the assay with indian jointvetch it was 70%; in the assay with cocklebur, 70%; with crabgrass it was 20%; with velvetleaf, 80%. In the assay with sorghum, the “Foliar treatment herbicidal activity, Sorghum” value came out at 0. For the same molecule, the “Foliar treatment herbicidal activity, black nightshade” value with black nightshade was determined as 100. Further, in the assay on barnyard grass, the “Foliar treatment herbicidal activity, barnyard grass” value worked out at 0.
`Cn1nnnc1COc1nc(C(F)(F)F)ccc1C(=O)Nc1nnnn1C(F)F` [Compound No. 1-4, N-(1-(difluoromethyl)-1H-tetrazol-5-yl)-2-((1-methyl-1H-tetrazol-5-yl)methoxy)-6-(trifluoromethyl)nicotinamide]: the “Foliar treatment herbicidal activity, quack grass” value with quack grass was determined as 0. Moreover, in the assay on fall panicum, the “Foliar treatment herbicidal activity, Fall panicum” value is given as 0. For the same molecule, the “Foliar treatment herbicidal activity, Sorghum” value in the assay on sorghum was 0. Moreover, the pest or weed control at 50 g/ha in the assay on bindweed was found to be 20%; in the assay on indian jointvetch, 20%; in the assay on cocklebur it was 60%; in the assay on black nightshade, 80%; in the assay on velvetleaf, 20%. Besides, the “Foliar treatment herbicidal activity, Crabgrass” value in the assay on crabgrass is listed as 0. Besides, in the assay on barnyard grass, the “Foliar treatment herbicidal activity, barnyard grass” value was determined as 0.

Broadly, the plant injury is how far the test organism was held down.

The values above are taken from patent publication US12495798B2, “Nicotinamide compound and herbicidal composition comprising compound” (KOREA RESEARCH INSTITUTE OF CHEMICAL TECHNOLOGY, priority 2019, dated 2025).
